The text below walks through data of patent publication EP1803452A1, “ESTER DERIVATIVE AND PHARMACEUTICAL USE THEREOF” (Japan Tobacco, Inc., priority 2004, dated 2006).

Data set [1] in a line: Stability test in buffer (pH 7.4). The class given is physicochemical. The note with it: phosphate buffer/acetonitrile 7:3, 100 mM potassium phosphate buffer (pH 7.4) and acetonitrile 7:3 (v/v), LC/MS; for remaining at 10 min: 10 minutes at 37°C, read-out: Buf. remaining rate (%/10min); for remaining at 1 h: 60 minutes at 37°C, read-out: Buf. remaining rate (%/60min). The protocol:
In the tables, Buf. remaining rate was determined by stability test in buffer (pH 7.4) as described below. A sample dissolved in DMSO was mixed with a mixed solution of 100 mM potassium phosphate buffer and acetonitrile in the ratio of 7:3 (v/v). The mixture was incubated at 37°C for 0, 10, and 60 minutes, and acetonitrile containing formic acid (final concentration: 0.1%) was added thereto. The solution was centrifuged, and the concentration of the sample (unchanged form) in the supernatant was determined by high performance liquid chromatography/mass spectrometry (LC/MS). Based on the data obtained, Buf. remaining rate (%) was calculated according to the following equation. Buf.remaining rate(%) = amount of sample 0,10, or 60 minutes after incubation/amount of sample at zero time after incubation × 100 [formula]

Data set [2] is described as follows: Metabolic stability test in plasma. It counts as in vitro ADME, human. The note with it: LC/MS; for remaining at 10 min: unchanged form after 10 minutes at 37°C in human plasma, read-out: Remaining rate in human plasma (%/10min); for remaining at 1 h: unchanged form after 60 minutes at 37°C in human plasma, read-out: Remaining rate in human plasma (%/60min). The protocol: A sample dissolved in DMSO was added to plasma of human or animal species (mouse and hamster). The solutions were incubated at 37°C for 0, 10 and 60 minutes, and acetonitrile containing formic acid (final concentration: 0.1%) was added thereto. The solutions were centrifuged, and the concentration of the sample (unchanged form) in the supernatant was determined by high performance liquid chromatography/mass spectrometry (LC/MS). Based on the data obtained, the remaining rate (%) was calculated according to the following equation. Remaining rate(%) = amount of sample 0,10, or 60 minutes after incubation/amount of sample at zero time after incubation × 100 [formula]
(§1) With respect to the compounds obtained in Working Examples according to the present invention (Compounds 1-1 to 1-115, 2-1, 3-1, 3-2, and 4-1 to 4-4), the results of the remaining rate in human liver S9 and plasma are shown in Tables 28 to 32.

A short description of data set [3]: Metabolic stability test in liver S9. The class given is in vitro ADME. The note with it: pH 7.4, human liver S9 2 mg protein/mL, LC/MS; for remaining at 10 min: unchanged form after 10 minutes at 37°C, read-out: Remaining rate in human liver S9 (%/10min); for remaining at 1 h: unchanged form after 60 minutes at 37°C, read-out: Remaining rate in human liver S9 (%/60min). How it is done: Human liver S9 (final concentration: 2 mg protein/mL), was suspended in 100 mM potassium phosphate buffer (pH 7.4, containing β-nicotinamide adenine dinucleotide phosphate: 1.3 mM, D-glucose-6- phosphate: 3.3 mM, magnesium chloride: 3.3 mM, glucose-6-phosphate dehydrogenase:0.4 U/mL). The suspension was mixed with a solution of a sample dissolved in DMSO. The solution was incubated at 37°C for 0, 10 and 60 minutes, and an acetonitrile containing formic acid (final concentration: 0.1%) was added thereto. The solutions were centrifuged, and the concentration of the sample (unchanged form) in the supernatant was determined by high performance liquid chromatography/mass spectrometry (LC/MS). Based on the data obtained, remaining rate (%) was calculated according to the following equation. Remaining rate(%) = amount of sample 0,10, or 60 minutes after [formula] incubation/amount of sample at zero time after incubation × 100 [formula]
as §1

As for `CN(C)C(=O)c1cc(CCC(=O)Oc2ccccc2)ccc1NC(=O)c1ccccc1-c1ccc(C(F)(F)F)cc1` [Compound 1-1, 3-{3-dimethylcarbamoyl-4-[(4'-trifluoromethylbiphenyl-2-carbonyl)amino]phenyl}propionic acid phenyl ester], the remaining at 10 min in data set [1] was 101%; in data set [2], 80%; in data set [3], 0%. For the same compound, the remaining at 1 h in data set [1] was determined as 104%; in data set [2], 40%; in data set [3], 0%.
In the case of `Cc1noc(-c2ccc(OC(=O)CCCc3ccc(NC(=O)c4ccccc4-c4ccc(C(F)(F)F)cc4)c(C(=O)N(C)C)c3)cc2)n1` [Compound 1-2, 4-{3-dimethylcarbamoyl-4-[(4'-trifluoromethylbiphenyl-2-carbonyl)amino]phenyl}butyric acid 4-(3-methyl-[1,2,4]oxadiazol-5-yl)phenyl ester], the remaining at 10 min in data set [1] was 98%; in data set [2], 20%; in data set [3], 0%. In addition, the remaining at 1 h in data set [1] is 97%; in data set [2] it was 0%; in data set [3], 0%.
For `CN(C)C(=O)c1cc(CC(=O)Oc2ccccc2)ccc1NC(=O)c1ccccc1-c1ccc(C(F)(F)F)cc1` [Compound 1-3, {3-dimethylcarbamoyl-4-[(4'-trifluoromethylbiphenyl-2-carbonyl)amino]phenyl}acetic acid phenyl ester], the remaining at 10 min came to 101% in data set [1], 58% in data set [2] and 0% in data set [3]. The remaining at 1 h in data set [1] is 98%; in data set [2], 5%; in data set [3], 0%.
As for `CN(C)C(=O)c1cc(CC(=O)Oc2ccc(F)cc2)ccc1NC(=O)c1ccccc1-c1ccc(C(F)(F)F)cc1` [Compound 1-4, {3-dimethylcarbamoyl-4-[(4'-trifluoromethylbiphenyl-2-carbonyl)amino]phenyl}acetic acid 4-fluorophenyl ester], the remaining at 10 min in data set [1] is 99%; in data set [2], 57%; in data set [3] it was 0%. Also, the remaining at 1 h is 95% in data set [1], 5% in data set [2] and 0% in data set [3].
`COC(=O)c1ccc(OC(=O)CCCc2ccc(NC(=O)c3ccccc3-c3ccc(C(F)(F)F)cc3)c(C(=O)N(C)C)c2)cc1` [Compound 1-5, 4-(4-(3-dimethylcarbamoyl-4-[(4'-trifluoromethylbiphenyl-2-carbonyl)amino]phenyl}butyryloxy)benzoic acid methyl ester]: the remaining at 10 min turned out to be 100% in data set [1], 11% in data set [2] and 0% in data set [3]. The remaining at 1 h in data set [1] was determined as 101%; in data set [2], 0%; in data set [3] it was 0%.
`CCOC(=O)c1ccc(OC(=O)CCCc2ccc(NC(=O)c3ccccc3-c3ccc(C(F)(F)F)cc3)c(C(=O)N(C)C)c2)cc1` [Compound 1-6, 4-(4-{3-dimethylcarbamoyl-4-[(4'-trifluoromethylbiphenyl-2-carbonyl)amino]phenyl}butyryloxy)benzoic acid ethyl ester]: the remaining at 10 min was determined as 102% in data set [1], 53% in data set [2] and 0% in data set [3]. Moreover, the remaining at 1 h in data set [1] is 102%; in data set [2] it was 0%; in data set [3] it was 0%.
Take `CC(C)OC(=O)c1ccc(OC(=O)CCCc2ccc(NC(=O)c3ccccc3-c3ccc(C(F)(F)F)cc3)c(C(=O)N(C)C)c2)cc1` [Compound 1-7, 4-(4-{3-dimethylcarbamoyl-4-[(4'-trifluoromethylbiphenyl-2-carbonyl)amino]phenyl}butyryloxy)benzoic acid isopropyl ester]: the remaining at 10 min worked out at 98% in data set [1], 60% in data set [2] and 0% in data set [3]. The figures for the remaining at 1 h in data set [1], in data set [2] and in data set [3] were 98%, 0% and 0%, respectively.
Take `CCCOC(=O)c1ccc(OC(=O)CCCc2ccc(NC(=O)c3ccccc3-c3ccc(C(F)(F)F)cc3)c(C(=O)N(C)C)c2)cc1` [Compound 1-8, 4-(4-{3-dimethylcarbamoyl-4-[(4'-trifluoromethylbiphenyl-2-carbonyl)amino]phenyl}butyryloxy) benzoic acid propyl ester]: the results for the remaining at 10 min in data set [1], in data set [2] and in data set [3] were 99%, 71% and 0%, respectively. Moreover, the remaining at 1 h in data set [1] worked out at 98%; in data set [2], 12%; in data set [3], 0%.
In the case of `COC(=O)c1ccc(OC(=O)CCCc2ccc(NC(=O)c3ccccc3-c3ccc(C(F)(F)F)cc3)c(C(=O)N(C)C)c2)c(F)c1` [Compound 1-10, 4-(4-{3-dimethylcarbamoyl-4-[(4'-trifluoromethylbiphenyl-2-carbonyl)amino]phenyl}butyryloxy)-3-fluoro benzoic acid methyl ester], the remaining at 10 min in data set [1] came to 101%; in data set [2], 0%; in data set [3], 0%. Also, the figures for the remaining at 1 h in data set [1], in data set [2] and in data set [3] were 98%, 0% and 0%, respectively.
Regarding `COC(=O)c1ccc(OC(=O)CCCc2ccc(NC(=O)c3ccccc3-c3ccc(C(F)(F)F)cc3)c(C(=O)N(C)C)c2)c(Cl)c1` [Compound 1-11, 3-chloro-4-(4-{3-dimethylcarbamoyl-4-[(4'-trifluoromethylbiphenyl-2-carbonyl)amino]phenyl}butyryloxy)benzoic acid methyl ester], the remaining at 10 min in data set [1] was 99%; in data set [2] it was 0%; in data set [3] it was 0%. The figures for the remaining at 1 h in data set [1], in data set [2] and in data set [3] were 99%, 0% and 0%, respectively.
As for `COC(=O)c1ccc(OC(=O)CCCc2ccc(NC(=O)c3ccccc3-c3ccc(C(F)(F)F)cc3)c(C(=O)N(C)C)c2)c(OC)c1` [Compound 1-12, 4-(4-{3-dimethylcarbamoyl-4-[(4'-trifluoromethylbiphenyl-2-carbonyl)amino]phenyl}butyryloxy)-3-methoxybenzoic acid methyl ester], the remaining at 10 min in data set [1] is 100%; in data set [2], 10%; in data set [3], 0%. Moreover, the remaining at 1 h was determined as 103% in data set [1], 0% in data set [2] and 0% in data set [3].
As for `COC(=O)c1ccc(OC(=O)CCCc2ccc(NC(=O)c3ccc(C)nc3-c3ccc(C(F)(F)F)cc3)c(C(=O)N(C)C)c2)cc1` [Compound 1-13, 4-[4-(3-dimethylcarbamoyl-4-{[6-methyl-2-(4-trufluoromethylphenyl)pyridine-3-carbonyl]amino}phenyl)butyryloxy)benzoic acid methyl ester], the remaining at 10 min in data set [1] was determined as 95%; in data set [2], 24%; in data set [3], 0%. In addition, the remaining at 1 h is 97% in data set [1], 0% in data set [2] and 0% in data set [3].
As to `COC(=O)c1ccc(OC(=O)CCCc2ccc(NC(=O)c3ccccc3-c3ccc(C(F)(F)F)cc3)c(C(=O)N(C)C)c2)cc1C` [Compound 1-14, 4-(4-{3-dimethylcarbamoyl-4-[(4'-trifluoromethylbiphenyl-2-carbonyl)amino]phenyl}butyryloxy)-2-methyl benzoic acid methyl ester], the remaining at 10 min stood at 101% in data set [1], 43% in data set [2] and 2% in data set [3]. Further, the remaining at 1 h in data set [1] was determined as 104%; in data set [2], 0%; in data set [3], 0%.
